# Where “and” joins values, the source holds several entries; their conditions need not be identical. Equal values may be shown once. Read-outs that look alike come from different tables or passages of the source.
# How the values were obtained:
# OATP1B1 [1] = molecular target: T1, OATP1B1 (Homo sapiens, UniProt Q9Y6L6); assay: Preincubation-induced trans-inhibition of OATP1B1-mediated [3H]-E217βG transport in HEK293-FLAG-OATP1B1 cells; format: cell-based; set-up: expressed in transfected cells; details: for IC50: washing, [3H]-E217βG 1 µM 2 min without inhibitor, HEK293-FLAG-OATP1B1, read-out: Preincubation IC50 against OATP1B1
# T1 sequence (Q9Y6L6 1-691): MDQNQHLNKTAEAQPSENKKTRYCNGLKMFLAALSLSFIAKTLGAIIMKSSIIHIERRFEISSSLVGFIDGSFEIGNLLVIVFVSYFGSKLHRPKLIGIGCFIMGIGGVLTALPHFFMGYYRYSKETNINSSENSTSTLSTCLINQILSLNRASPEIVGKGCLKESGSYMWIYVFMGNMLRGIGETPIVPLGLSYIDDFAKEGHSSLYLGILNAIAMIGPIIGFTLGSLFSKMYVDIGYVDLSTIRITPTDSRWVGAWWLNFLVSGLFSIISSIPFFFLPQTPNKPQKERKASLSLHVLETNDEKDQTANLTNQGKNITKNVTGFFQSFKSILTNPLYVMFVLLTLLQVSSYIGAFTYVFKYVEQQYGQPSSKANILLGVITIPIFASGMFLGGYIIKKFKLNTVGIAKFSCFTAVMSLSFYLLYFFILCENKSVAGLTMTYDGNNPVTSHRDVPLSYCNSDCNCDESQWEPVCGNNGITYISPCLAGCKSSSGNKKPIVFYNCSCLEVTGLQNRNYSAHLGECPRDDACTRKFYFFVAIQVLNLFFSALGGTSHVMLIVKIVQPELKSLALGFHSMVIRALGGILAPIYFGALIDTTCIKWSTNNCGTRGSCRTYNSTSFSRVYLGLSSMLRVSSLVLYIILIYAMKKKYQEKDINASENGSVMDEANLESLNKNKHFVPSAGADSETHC
# From the text: The IC50 values were estimated by nonlinear regression using the three-parameter model as below with GraphPad Prism v.9.0 (GraphPad Software, La Jolla, CA, USA). E = Bottom + (Top − Bottom)/(1 + (C/IC50))
# OATP1B1 [2] = molecular target: T1, OATP1B1; details: E1S as substrate; cited from earlier work
# human SCH = assay: [3H]-pitavastatin accumulation in human sandwich-cultured hepatocytes after inhibitor preincubation and washing; format: cell-based; details: 10 µM
# Procedure: Fresh primary human hepatocytes were purchased from Lonza Walkersville, Inc. (Walkersville, MD, USA). Donor information is provided in Supplementary Table S1. Cell viability was 96% after centrifugation. Culture of human SCH was performed as described previously. In brief, on day 1, cells were plated at 3 × 10^5 cells per well in 24-well Biocoat™ plates (Thermo Fisher Scientific, Waltham, MA, USA). When cells had attached to the plate after 6 h of seeding, cells were overlaid with Matrigel™ (Thermo Fisher Scientific, Waltham, MA, USA) (0.25 mg/mL) in feeding medium: phenol red-free DMEM supplemented with 2 mM L-glutamine, 1% (v/v) MEM NEAA, 100 units/mL of penicillin G sodium, 100 µg/mL of streptomycin sulfate, 0.1 μM dexamethasone, and 1% (v/v) ITS^+ premix. Uptake experiments were conducted on day two of culture, the next day after seeding.
# [3] = cited from earlier work
# OATP1B1 [4] = molecular target: T1, OATP1B1; assay: Preincubation-induced trans-inhibition of OATP1B1-mediated [3H]-E1S transport in HEK293-FLAG-OATP1B1 cells; format: cell-based; set-up: expressed in transfected cells; details: E1S 1 µM, 2 min
# Procedure: (§1) HEK293-FLAG-OATP1B1 and HEK293-FLAG-OATP1B3 cells were seeded at a density of 1.5 × 10^5 cells per well of 24-well plate coated with poly-L-lysine and allowed to grow for 48 h to confluence before uptake studies were performed as published previously; the preincubation effects on OATP1B1- and OATP1B3-mediated transport were also determined as previously published. […] After washing three times with HBSS buffer (pH 7.4), substrate accumulation was determined in the absence of inhibitors. [^3H]-E217βG (1 µM, 2 min) and [^3H]-E1S (1 µM, 2 min) were used as probe substrates for OATP1B1; [^3H]-CCK-8 (1 µM, 3 min) was used as the probe substrate for OATP1B3, similar to previous publications. [^3H]-pitavastatin accumulation (1 µM, 30 s) in human SCH was conducted on day 2 of culture as has been published previously. Substrate accumulation was determined by scintillation counting (LS6500 scintillation counter, Beckman Coulter, Brea, CA) and normalized to a protein concentration determined via BCA assay (Pierce Chemical, Rockford, IL, USA). Transport assays on a blank plate without cells were conducted to correct for the nonspecific binding to the assay plate.
# OATP1B3 [5] = molecular target: T2, OATP1B3 (Homo sapiens, UniProt Q9NPD5); assay: Preincubation-induced trans-inhibition of OATP1B3-mediated [3H]-CCK-8 transport in HEK293-FLAG-OATP1B3 cells; format: cell-based; details: preincubation 10–60 min with tacrolimus 1–10 µM; greatest reduction
# T2 construct: expressed in transfected cells
# T2 sequence (Q9NPD5 1-702): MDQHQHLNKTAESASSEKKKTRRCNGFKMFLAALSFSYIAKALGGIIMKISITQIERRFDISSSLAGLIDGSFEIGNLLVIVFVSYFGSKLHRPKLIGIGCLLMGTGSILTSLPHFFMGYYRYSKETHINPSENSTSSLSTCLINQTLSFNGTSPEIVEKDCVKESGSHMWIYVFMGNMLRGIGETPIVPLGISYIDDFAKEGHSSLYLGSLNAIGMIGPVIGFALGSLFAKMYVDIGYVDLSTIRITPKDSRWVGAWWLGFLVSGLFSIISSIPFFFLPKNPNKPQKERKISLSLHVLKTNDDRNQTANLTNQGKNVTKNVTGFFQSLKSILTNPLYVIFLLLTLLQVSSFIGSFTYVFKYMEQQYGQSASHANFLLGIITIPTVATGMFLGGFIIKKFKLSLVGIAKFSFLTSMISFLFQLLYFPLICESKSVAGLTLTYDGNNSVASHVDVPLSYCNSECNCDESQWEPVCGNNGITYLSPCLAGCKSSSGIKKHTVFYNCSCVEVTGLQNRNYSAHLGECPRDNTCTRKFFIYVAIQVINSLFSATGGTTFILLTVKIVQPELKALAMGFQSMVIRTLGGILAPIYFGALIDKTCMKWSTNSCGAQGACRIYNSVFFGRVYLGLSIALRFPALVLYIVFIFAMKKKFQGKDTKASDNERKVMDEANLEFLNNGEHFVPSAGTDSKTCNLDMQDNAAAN
# Procedure: as §1
# OATP1B3 [6] = molecular target: T2, OATP1B3; set-up: method as in PMID 22240838; details: cited from earlier work
smiles,measurement,setting,value
C/C=C/C[C@@H](C)[C@@H](O)[C@H]1C(=O)N[C@@H](CC)C(=O)N(C)[C@H](SCCN(C)C)C(=O)N(C)[C@@H](CC(C)(C)O)C(=O)N[C@@H](C(C)C)C(=O)N(C)[C@@H](CC(C)C)C(=O)N[C@@H](C)C(=O)N[C@H](C)C(=O)N(C)[C@@H](CC(C)C)C(=O)N(C)[C@@H](CC(C)C)C(=O)N(C)[C@@H](C(C)C)C(=O)N1C [SCY-635],IC50,OATP1B1 [1]; 10 min preincubation (0.001–10 µM),~9.4 µM and 9.4 µM
same,IC50,OATP1B1 [1]; 30 min preincubation (0.001–10 µM),~3.1 µM and 3.1 µM
same,IC50,OATP1B1 [1]; 60 min preincubation (0.001–10 µM),2.2 ± 1.4 µM
same,"IC50 against OATP1B1, fold greater than that of CsA","OATP1B1 [1]; 60 min preincubation, SCY-635 IC50 versus CsA IC50",~ 18 fold
same,"Preincubation IC50 at 30 min, fold higher than IC50 at 60 min preincubation","OATP1B1 [1]; OATP1B1, 30 min versus 60 min preincubation",1.4 fold
same,Effect of preincubation on OATP1B1-mediated transport,"OATP1B1 [1]; SCY-635, all preincubation times, only at 5 and 10 µM, p < 0.00001",significantly reduced
C=CC[C@@H]1/C=C(\C)C[C@H](C)C[C@H](OC)[C@H]2O[C@@](O)(C(=O)C(=O)N3CCCC[C@H]3C(=O)O[C@H](/C(C)=C/[C@@H]3CC[C@@H](O)[C@H](OC)C3)[C@H](C)[C@@H](O)CC1=O)[C@H](C)C[C@@H]2OC [tacrolimus],Preincubation-induced trans-inhibition against OATP1B1,OATP1B1 [2],no preincubation-induced trans-inhibition
same,"[3H]-pitavastatin accumulation after washout (long-lasting inhibition), fold that of the control",human SCH,0.59 ± 0.09 fold that of the control
same,"[3H]-pitavastatin accumulation, fold that of the control","human SCH; human SCH, 1 h preincubation, washing, pitavastatin 1 µM, 0.5 min, N = 1 donor",0.58 ± 0.07 fold that of the control
same,"OATP1B1-mediated transport, reduced up to, fold compared to the control","OATP1B1 [1]; preincubation 10–60 min with tacrolimus 1–10 µM, greatest reduction",0.18 ± 0.03 fold compared to the control
same,DDI against atorvastatin,[3],does not cause DDIs
same,DDI against simvastatin,[3],does not cause DDIs
same,Increase of AUC of cerivastatin,"[3]; long-term tacrolimus treatment, renal transplant recipients",1.5 fold
same,Increase of AUC of pravastatin,"[3]; long-term tacrolimus treatment, two pediatric and adolescent cardiac transplant recipients",~ 10 fold
same,"OATP1B1-mediated transport of [3H]-E1S, fold that of the control","OATP1B1 [4]; 1 µM preincubation, 10 min",0.85 ± 0.02 fold that of the control
same,"OATP1B1-mediated transport of [3H]-E1S, fold that of the control","OATP1B1 [4]; 1 µM preincubation, 30 min",0.88 ± 0.04 fold that of the control
same,"OATP1B1-mediated transport of [3H]-E1S, fold that of the control","OATP1B1 [4]; 10 µM preincubation, 10 min",0.59 ± 0.04 fold that of the control
same,"OATP1B1-mediated transport of [3H]-E1S, fold that of the control","OATP1B1 [4]; 10 µM preincubation, 30 min",0.59 ± 0.05 fold that of the control
same,"OATP1B1-mediated transport of [3H]-E1S, fold that of the control","OATP1B1 [4]; 10 µM preincubation, 60 min",0.55 ± 0.04 fold that of the control
same,"OATP1B3-mediated transport, reduced up to, fold compared to the control",OATP1B3 [5],0.20 ± 0.02 fold compared to the control
same,Preincubation-induced trans-inhibition against OATP1B3,OATP1B3 [6],no preincubation-induced trans-inhibition

# Reference: publication PMC10818623, “Assessing Trans-Inhibition of OATP1B1 and OATP1B3 by Calcineurin and/or PPIase Inhibitors and Global Identification of OATP1B1/3-Associated Proteins” (Pharmaceutics, 2023)
